Our source for the EC50 and melting point values is patent publication US7241785B2, “Five-membered heterocyclic alkanoic acid derivative” (Takeda Pharmaceutical Company Limited, priority 2001, dated 2007).

Molecules are shown by their SMILES.

The target of data set [1] is T1, PPARγ-RXRα heterodimer (Homo sapiens, UniProt P37231).
T1 construct: expressed in transfected cells
T1 sequence (P37231 1-477 isoform P37231-2): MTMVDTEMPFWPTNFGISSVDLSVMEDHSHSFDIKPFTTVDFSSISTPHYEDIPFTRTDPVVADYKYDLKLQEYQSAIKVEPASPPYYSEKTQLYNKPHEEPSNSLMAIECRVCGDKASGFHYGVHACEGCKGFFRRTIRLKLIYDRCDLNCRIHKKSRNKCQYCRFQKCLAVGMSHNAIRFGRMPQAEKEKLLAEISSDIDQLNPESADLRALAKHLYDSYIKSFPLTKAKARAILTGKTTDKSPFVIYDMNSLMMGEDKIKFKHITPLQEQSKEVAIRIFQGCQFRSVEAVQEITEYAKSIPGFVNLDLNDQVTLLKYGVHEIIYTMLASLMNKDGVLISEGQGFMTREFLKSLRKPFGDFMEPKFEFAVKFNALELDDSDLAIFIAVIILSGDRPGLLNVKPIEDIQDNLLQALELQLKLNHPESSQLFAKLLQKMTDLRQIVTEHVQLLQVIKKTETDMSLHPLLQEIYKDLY
T1 sequence (P19793 1-462 partner): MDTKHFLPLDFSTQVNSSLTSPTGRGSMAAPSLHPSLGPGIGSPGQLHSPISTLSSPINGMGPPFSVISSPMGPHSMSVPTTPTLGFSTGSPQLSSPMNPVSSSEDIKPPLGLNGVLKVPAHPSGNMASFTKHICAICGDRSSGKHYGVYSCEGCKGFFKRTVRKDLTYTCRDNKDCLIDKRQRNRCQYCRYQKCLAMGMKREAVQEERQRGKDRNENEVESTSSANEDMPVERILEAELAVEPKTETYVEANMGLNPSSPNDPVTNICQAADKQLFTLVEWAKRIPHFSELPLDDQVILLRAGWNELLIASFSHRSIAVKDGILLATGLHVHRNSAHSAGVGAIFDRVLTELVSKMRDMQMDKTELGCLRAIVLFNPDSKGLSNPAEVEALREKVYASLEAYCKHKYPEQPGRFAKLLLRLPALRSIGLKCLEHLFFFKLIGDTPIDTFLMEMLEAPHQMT
In words: PPARγ-RXRα heterodimer ligand activity (luciferase reporter, PPARγ:RXRα:4ERPP/CHO-K1 cells). Type of data set: cell-based. The conditions noted are these: concentration for 50% of maximum fold induction of luciferase, 48 hrs. On the procedure: (PPARγ-RXRα Heterodimer Ligand Activity)
PPARγ:RXRα:4ERPP/CHO-K1 cells obtained in Reference Example 8a were cultured in HAM F12 medium (manufactured by NISSUI SEIYAKU) containing 10% fetal bovine serum [manufactured by Life Technologies, Inc., USA], seeded in a 96-well white plate [manufactured by Corning Coster Corporation, USA] at the density of 2×10^4 cells/well and cultured in a CO2 gas incubator at 37° C. overnight.
After washing the 96-well white plate with PBS (Phosphate-buffered saline), 90 μl of HAM F12 medium containing 0.1% fatty acid-free bovine serum albumin (BSA) and 10 μl of test compound were added, and the cells were cultured in a CO2 gas incubator at 37° C. for 48 hrs. The medium was removed and 40 μl of PicaGene 7.5 (manufactured by Wako Pure Chemical Industries, Ltd.) was added. After stirring, the luciferase activity was determined using Lumistar [manufactured by BMG Labtechnologies GmbH, Germany].
The fold induction was calculated from the luciferase activity of each test compound when the luciferase activity of the non-treatment group is taken as 1. The values of the test compound concentration and the fold induction were analyzed using PRISM 2.01 (produced by GraphPad Software Inc. USA) to calculate the EC50 values, the effective concentration of a test compound for 50% of the maximum fold induction.
Introduction of Human PPARγ- and RXRα-Expression Plasmid and Reporter Plasmid into CHO-K1 Cell and Establishment of Expressed Cell
After a CHO-K1 cell cultured in a tissue culture flask (750 ml) (produced by Corning Costar Corporation, USA) containing HAM F12 medium (produced by NISSUI SEIYAKU) supplemented with 10% fetal bovine serum (produced by Life Technologies, Inc., USA) was scraped by treating with 0.5 g/L trypsin-0.2 g/L EDTA (ethylenediaminetetraacetic acid) (produced by Life Technologies, Inc., USA), the cell was washed with PBS (phosphate-buffered saline) (produced by Life Technologies, Inc., USA), centrifuged (1000 rpm, 5 minutes), and then suspended in PBS. Subsequently, a DNA was introduced into the cell under the conditions shown below using GENE PULSER (produced by Bio-Rad Laboratories, USA).
Namely, to a cuvette having a 0.4 cm gap, added were 8×10^6 cells and 10 μg of plasmid pVgRXR2-hPPARγ obtained in Reference Example 7a and 10 μg of reporter plasmid pGL3-4ERPP-TK neo obtained in Reference Example 4a, which was subjected to electroporation at the voltage of 0.25 kV under the capacitance of 960 μF. Subsequently, the cell was transferred into a HAM F12 medium containing 10% fetal bovine serum and cultured for 24 hours and then the cell was scraped again and centrifuged, and then suspended in HAM F12 medium containing 10% fetal bovine serum supplemented with 500 μg/ml of GENETICIN, (produced by Life Technologies, Inc., USA) and 250 μg /ml of ZEOCIN (produced by Invitrogen, USA). The obtained suspension was diluted to the density of 10^4 cells/ml and inoculated to a 96-well plate (produced by Corning Costar Corporation, USA), which was cultured in a CO2 gas incubator at 37° C., whereby obtaining a GENETICIN- and ZEOCIN-resistant transformant.
Subsequently, after the transformant cell line thus obtained was cultured in a 24-well plate (produced by Corning Costar Corporation, USA), selected was a cell line in which the luciferase was expressed and induced, i.e., PPARγ:RXRα:4ERPP/CHO-K1 cell by the addition of 10 μM pioglitazone hydrochloride.
On the technique in general: In a reporter assay the amount or activity of a reporter protein is the signal.

By EC50 is commonly meant the concentration needed to bring the measured effect to its halfway point. High values mean lower potency in that assay, low ones higher potency in that assay. One may read the melting point as the temperature of the solid-liquid transition.

`Cc1oc(-c2ccccc2)nc1COc1ccc(Sc2nc(-c3ccccc3)c(CCC(=O)O)o2)cc1` [Example 10, 3-[2-[4-(5-methyl-2-phenyl-4-oxazolylmethoxy)phenylthio]-4-phenyl-5-oxazolyl]propionic acid] returned a melting point of 136 to 137 °C. This molecule came in with an EC50 in data set [1] of 9.9 nM.
